{"source": "paper PMC9981719", "about": "“A novel designed membrane-active peptide for the control of foodborne Salmonella enterica serovar Typhimurium” (Scientific Reports, 2023)", "key": {"[1]": {"test_system": "16 drug-resistant S. Typhimurium and 4,5,12:i:- isolates from Thailand", "type": "cell-based, Salmonella enterica", "details": "summary over 16 isolates; nisin up to maximum concentration of 16,000 µg/ml", "excerpt": "(§1) All tests were done in triplicate."}, "[2]": {"test_system": "S. Typhimurium ATCC 13311 and 10 drug-resistant S. Typhimurium and S. enterica isolates", "test": "Checkerboard titration, A11 with nisin, summary over strains", "type": "cell-based, Salmonella enterica", "details": "summary over tested strains", "experimental": "(§2) Effects of the combination of A11 with nisin against S. Typhimurium ATCC 13311 and 10 drug-resistant S. Typhimurium and S. enterica isolates were determined by the checkerboard titration method. Briefly, 10 drug-resistant S. Typhimurium were grown to a concentration of 1 × 10^7 CFU/ml in fresh TSB. Aliquots (25 µl) of nisin (final concentrations of 0.5–16 mg/ml) and A11 (final concentrations of 0.98–250 µg/ml) were added into 96-well plates containing 50 µl of bacterial suspension and cultured at 37 °C. […] ICA is the concentration required to produce the same effect as compound A when used alone, ICB is the concentration required to produce the same effect as compound B when used alone. The CI results were interpreted as follows: a CI of less than 1 indicates synergistic effect, a CI equal to 1 indicates additive effect, and a CI of more than 1 indicates antagonistic effect."}, "S. Typhimurium ATCC13311": {"test_system": "S. Typhimurium ATCC13311", "details": "checkerboard, TSB, 37 °C, 24 h", "experimental": "as §2"}, "S. Typhimurium H1-006 [3]": {"test_system": "S. Typhimurium H1-006", "details": "checkerboard", "experimental": "as §2"}, "S. Typhimurium H1-041 [4]": {"test_system": "S. Typhimurium H1-041", "details": "checkerboard", "experimental": "as §2"}, "S. Typhimurium H1-011 [5]": {"test_system": "S. Typhimurium H1-011", "details": "checkerboard", "experimental": "as §2"}, "4,5,12:i:- H2-039 [6]": {"test_system": "4,5,12:i:- H2-039", "details": "checkerboard", "experimental": "as §2"}, "4,5,12:i:- H1-100 [7]": {"test_system": "4,5,12:i:- H1-100", "details": "checkerboard", "experimental": "as §2"}, "S. Typhimurium H1-001 [8]": {"test_system": "S. Typhimurium H1-001", "details": "checkerboard", "experimental": "as §2"}, "S. Typhimurium H1-062 [9]": {"test_system": "S. Typhimurium H1-062", "details": "checkerboard", "experimental": "as §2"}, "S. Typhimurium H1-015 [10]": {"test_system": "S. Typhimurium H1-015", "details": "checkerboard", "experimental": "as §2"}, "4,5,12:i:- H2-089 [11]": {"test_system": "4,5,12:i:- H2-089", "details": "checkerboard", "experimental": "as §2"}, "4,5,12:i:- H2-042 [12]": {"test_system": "4,5,12:i:- H2-042", "details": "checkerboard", "experimental": "as §2"}, "S. Typhimurium H1-006 [13]": {"test_system": "S. Typhimurium H1-006", "test": "MIC/MBC against drug-resistant isolate", "type": "cell-based, Salmonella enterica serovar Typhimurium", "details": "strain H1-006", "excerpt": "as §1"}, "S. Typhimurium H1-041 [14]": {"test_system": "S. Typhimurium H1-041", "test": "MIC/MBC against drug-resistant isolate", "type": "cell-based, Salmonella enterica serovar Typhimurium", "details": "strain H1-041", "excerpt": "as §1"}, "S. Typhimurium H1-062 [15]": {"test_system": "S. Typhimurium H1-062", "test": "MIC/MBC against drug-resistant isolate", "type": "cell-based, Salmonella enterica serovar Typhimurium", "details": "strain H1-062", "excerpt": "as §1"}, "[16]": {"test_system": "Salmonella Typhimurium ATCC 13311", "type": "cell-based, Salmonella enterica serovar Typhimurium", "details": "broth microdilution in MHB, 37 °C, 24 h, visible inspection, triplicate", "excerpt": "as §1"}, "S. Typhimurium H1-011 [17]": {"test_system": "S. Typhimurium H1-011", "type": "cell-based, Salmonella enterica serovar Typhimurium", "details": "strain H1-011", "excerpt": "as §1"}, "S. Typhimurium H1-001 [18]": {"test_system": "S. Typhimurium H1-001", "type": "cell-based, Salmonella enterica serovar Typhimurium", "details": "strain H1-001", "excerpt": "as §1"}, "S. Typhimurium H1-015 [19]": {"test_system": "S. Typhimurium H1-015", "type": "cell-based, Salmonella enterica serovar Typhimurium", "details": "strain H1-015", "excerpt": "as §1"}, "4,5,12:i:- H2-071": {"test_system": "4,5,12:i:- H2-071", "type": "cell-based, Salmonella enterica 4,5,12:i:-", "details": "strain H2-071", "excerpt": "as §1"}, "4,5,12:i:- H2-047": {"test_system": "4,5,12:i:- H2-047", "type": "cell-based, Salmonella enterica 4,5,12:i:-", "details": "strain H2-047", "excerpt": "as §1"}, "4,5,12:i:- H2-049": {"test_system": "4,5,12:i:- H2-049", "type": "cell-based, Salmonella enterica 4,5,12:i:-", "details": "strain H2-049", "excerpt": "as §1"}, "4,5,12:i:- H2-010": {"test_system": "4,5,12:i:- H2-010", "type": "cell-based, Salmonella enterica 4,5,12:i:-", "details": "strain H2-010", "excerpt": "as §1"}, "4,5,12:i:- H1-024": {"test_system": "4,5,12:i:- H1-024", "type": "cell-based, Salmonella enterica 4,5,12:i:-", "details": "strain H1-024", "excerpt": "as §1"}, "4,5,12:i:- H2-039 [20]": {"test_system": "4,5,12:i:- H2-039", "type": "cell-based, Salmonella enterica 4,5,12:i:-", "details": "strain H2-039", "excerpt": "as §1"}, "4,5,12:i:- H2-067": {"test_system": "4,5,12:i:- H2-067", "type": "cell-based, Salmonella enterica 4,5,12:i:-", "details": "strain H2-067", "excerpt": "as §1"}, "4,5,12:i:- H1-100 [21]": {"test_system": "4,5,12:i:- H1-100", "type": "cell-based, Salmonella enterica 4,5,12:i:-", "details": "strain H1-100", "excerpt": "as §1"}, "4,5,12:i:- H2-089 [22]": {"test_system": "4,5,12:i:- H2-089", "type": "cell-based, Salmonella enterica 4,5,12:i:-", "details": "strain H2-089", "excerpt": "as §1"}, "4,5,12:i:- H2-042 [23]": {"test_system": "4,5,12:i:- H2-042", "type": "cell-based, Salmonella enterica 4,5,12:i:-", "details": "strain H2-042", "excerpt": "as §1"}}, "note": "Where no end group is shown, it is not given here."}
{"substance": "Nisin (ITSISLCTPGCKTGALMGCNMKTATCHCSIHVSK; not fully specified (some residues, bridges); also: lantibiotic nisin-A: thioether (lanthionine) rings and dehydrated residues, places not given here; UniProt P13068 24-57, looked up) [bacteriocin, lantibiotic produced by Lactococcus lactis subsp. lactis, approved food preservative]", "values": [{"measurement": "MICs against the 16 drug-resistant S. enterica isolates", "setting": "[1]", "result": "> 16,000 µg/ml"}, {"measurement": "MIC of nisin in combination with A11", "setting": "[2]", "result": 500, "unit": "mg/L"}, {"measurement": "MIC (combination)", "setting": "S. Typhimurium ATCC13311; A11 combined with nisin", "result": 4000, "unit": "mg/L"}, {"measurement": "MIC (alone)", "setting": "S. Typhimurium ATCC13311", "result": "16,000 µg/ml"}, {"measurement": "MIC (combination)", "setting": "S. Typhimurium H1-006 [3]; A11 combined with nisin", "result": 500, "unit": "mg/L"}, {"measurement": "MIC (alone)", "setting": "S. Typhimurium H1-006 [3]; TSB, 37 °C, 24 h", "result": "> 16,000 µg/ml"}, {"measurement": "MIC (combination)", "setting": "S. Typhimurium H1-041 [4]; A11 combined with nisin", "result": 500, "unit": "mg/L"}, {"measurement": "MIC (alone)", "setting": "S. Typhimurium H1-041 [4]; TSB, 37 °C, 24 h", "result": "> 16,000 µg/ml"}, {"measurement": "MIC (combination)", "setting": "S. Typhimurium H1-011 [5]; A11 combined with nisin", "result": 500, "unit": "mg/L"}, {"measurement": "MIC (alone)", "setting": "S. Typhimurium H1-011 [5]; TSB, 37 °C, 24 h", "result": "> 16,000 µg/ml"}, {"measurement": "MIC (combination)", "setting": "4,5,12:i:- H2-039 [6]; A11 combined with nisin", "result": 500, "unit": "mg/L"}, {"measurement": "MIC (alone)", "setting": "4,5,12:i:- H2-039 [6]; TSB, 37 °C, 24 h", "result": "> 16,000 µg/ml"}, {"measurement": "MIC (combination)", "setting": "4,5,12:i:- H1-100 [7]; A11 combined with nisin", "result": 500, "unit": "mg/L"}, {"measurement": "MIC (alone)", "setting": "4,5,12:i:- H1-100 [7]; TSB, 37 °C, 24 h", "result": "> 16,000 µg/ml"}, {"measurement": "MIC (combination)", "setting": "S. Typhimurium H1-001 [8]; A11 combined with nisin", "result": 500, "unit": "mg/L"}, {"measurement": "MIC (alone)", "setting": "S. Typhimurium H1-001 [8]; TSB, 37 °C, 24 h", "result": "> 16,000 µg/ml"}, {"measurement": "MIC (combination)", "setting": "S. Typhimurium H1-062 [9]; A11 combined with nisin", "result": 500, "unit": "mg/L"}, {"measurement": "MIC (alone)", "setting": "S. Typhimurium H1-062 [9]; TSB, 37 °C, 24 h", "result": "> 16,000 µg/ml"}, {"measurement": "MIC (combination)", "setting": "S. Typhimurium H1-015 [10]; A11 combined with nisin", "result": 500, "unit": "mg/L"}, {"measurement": "MIC (alone)", "setting": "S. Typhimurium H1-015 [10]; TSB, 37 °C, 24 h", "result": "> 16,000 µg/ml"}, {"measurement": "MIC (combination)", "setting": "4,5,12:i:- H2-089 [11]; A11 combined with nisin", "result": 500, "unit": "mg/L"}, {"measurement": "MIC (alone)", "setting": "4,5,12:i:- H2-089 [11]; TSB, 37 °C, 24 h", "result": "> 16,000 µg/ml"}, {"measurement": "MIC (combination)", "setting": "4,5,12:i:- H2-042 [12]; A11 combined with nisin", "result": 500, "unit": "mg/L"}, {"measurement": "MIC (alone)", "setting": "4,5,12:i:- H2-042 [12]; TSB, 37 °C, 24 h", "result": "> 16,000 µg/ml"}, {"measurement": "MIC", "setting": "S. Typhimurium H1-006 [13]", "result": "> 16,000 µg/ml"}, {"measurement": "MIC", "setting": "S. Typhimurium H1-041 [14]", "result": "> 16,000 µg/ml"}, {"measurement": "MIC", "setting": "S. Typhimurium H1-062 [15]", "result": "> 16,000 µg/ml"}, {"measurement": "MIC", "setting": "[16]", "result": "16,000 µg/ml"}, {"measurement": "MIC", "setting": "S. Typhimurium H1-011 [17]", "result": "> 16,000 µg/ml"}, {"measurement": "MIC", "setting": "S. Typhimurium H1-001 [18]", "result": "> 16,000 µg/ml"}, {"measurement": "MIC", "setting": "S. Typhimurium H1-015 [19]", "result": "> 16,000 µg/ml"}, {"measurement": "MIC", "setting": "4,5,12:i:- H2-071", "result": "> 16,000 µg/ml"}, {"measurement": "MIC", "setting": "4,5,12:i:- H2-047", "result": "> 16,000 µg/ml"}, {"measurement": "MIC", "setting": "4,5,12:i:- H2-049", "result": "> 16,000 µg/ml"}, {"measurement": "MIC", "setting": "4,5,12:i:- H2-010", "result": "> 16,000 µg/ml"}, {"measurement": "MIC", "setting": "4,5,12:i:- H1-024", "result": "> 16,000 µg/ml"}, {"measurement": "MIC", "setting": "4,5,12:i:- H2-039 [20]", "result": "> 16,000 µg/ml"}, {"measurement": "MIC", "setting": "4,5,12:i:- H2-067", "result": "> 16,000 µg/ml"}, {"measurement": "MIC", "setting": "4,5,12:i:- H1-100 [21]", "result": "> 16,000 µg/ml"}, {"measurement": "MIC", "setting": "4,5,12:i:- H2-089 [22]", "result": "> 16,000 µg/ml"}, {"measurement": "MIC", "setting": "4,5,12:i:- H2-042 [23]", "result": "> 16,000 µg/ml"}]}
